Data: US8288378B2, “Phosphoinositide modulation for the treatment of neurodegenerative diseases” (The Trustees of Columbia University in the City of New York, priority 2006, dated 2012)

Assays:
PIPK1γ = target: T1, PIPK1γ (Homo sapiens, UniProt O60331); assay: PIPK1γ activity assay; assay type: biochemical; details: 50 μM
T1 construct: GST
Text: Thus, (20S)Rg3 serves as an activator of PI4KIIα, resulting in the increase in the steady-state levels of PIP and subsequently the levels of PIP2.

[1] = tested on: CA1 region of the hippocampus; assay: Long-term potentiation in adult hippocampal slices (CA1, tetanic stimulation of Schaeffer collateral pathway); parameters: species or system mouse
Text: Long-term potentiation (LTP) was induced in the CA1 region of the hippocampus through tetanic stimulation of the Schaeffer collateral pathway.

Aβ42 = target: T2, Aβ42 (Homo sapiens, UniProt P05067); assay: Oligomerization process of Aβ42
T2 construct: Synthetic Aβ (1-42) peptide was purchased from American Peptide; purchased American Peptide (Sunnyvale, Calif.); host or cells: synthetic peptide
T2 sequence (P05067 672-713 limits assumed): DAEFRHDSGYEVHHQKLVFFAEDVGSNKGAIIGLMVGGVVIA

mouse cortical neurons = assay: Phosphoinositide / anionic phospholipid levels in cultured cortical neurons (HPLC with suppressed conductivity); details: for PIP2 levels after Ca2+ ionophore: 2 μM; for effect of Ca2+ chelation on oAβ42-induced PIP2 decrease: oAβ42 for 60 min, EGTA 2 mM
Method: HPLC Lipid Analysis. Cells grown in 15-cm^2 dishes were scraped in 0.75 ml ice-cold MeOH: 1M HCl (1:1) supplemented with 2 mM AlCl3. Lipids were then extracted and deacylated by incubation with 0.5 ml methylamine reagent (MeOH:40% methylamine in water:n-butanol:water 47:36:9:8) at 50° C. for 45 min. The aqueous phase was dried, resuspended in 0.5 ml of n-butanol: petroleum ether:ethyl formate (20:40:1), and extracted twice with an equal volume of water. Aqueous extracts were dried, resuspended in water, and subjected to anion-exchange HPLC on an Tonpac AS11-HC column (Dionex). Negatively charged glycerol head groups were eluted with a 1.5-86 mM KOH gradient and detected online by suppressed conductivity 75 in a Dionex Ion Chromatography system equipped with an ASRS-ultra II self-regenerating suppressor. Individual peaks were identified and peak areas were calculated using the Chromeleon software (Dionex). Using deacylated anionic phospholipids as standards, lipid masses were calculated and expressed as molar fractions of total anionic phospholipids present in the sample (see Ref. 69).
2-week-old, cultured mouse cortical neurons were incubated with three different Aβ42 preparations (monomers, soluble oligomers, and fibrils) at concentrations of 200 nM. The levels of PIP2 were measured by conductance-based HPLC quantitation.
This preparation contains a mixture of monomers, trimers and tetramers as well as traces of dimers and high molecular weight oligomers, as described previously. Potential effects of this preparation were investigated either after an acute (0-120 min) or a subchronic treatment (72 h). The levels of phosphoinositides as well as a variety of other anionic phospholipids were measured and quantified in neuronal extracts using HPLC combined with suppressed conductivity detection (69, 71).
Cell culture. […] Primary cultures from cortical neurons were generated from newborn mice as described (126). Briefly, cortices were dissected out, trypsinized for 45 minutes, and then dissociated with a Pasteur pipette and plated on poly-ornithine coated 10 mm dishes at a density of 25,000 cells/cm^2 in Neurobasal-A medium containing 1 mM kyneurenic acid to reduce enhanced synaptic transmission due to the high density of the cultures.
Lipid measurements. Cultures were scrapped on a methanol:1N HCl 1:1 buffer supplemented with 2 mM AlCl3. Ice-cold chloroform (0.4 ml) was then added, and samples were vortexed for 1 min. The solvent phase was washed with 1 ml. methanol:2 mM oxalic acid (1:0.9 vol/vol) and dried under a flow of nitrogen.

PI4KIIα = target: T3, PI4KIIα (Homo sapiens, UniProt Q9BTU6); assay: PI4KIIα lipid kinase activity assay with TLC analysis; assay type: biochemical
T3 construct: made in house
T3 sequence (Q9BTU6 whole entry): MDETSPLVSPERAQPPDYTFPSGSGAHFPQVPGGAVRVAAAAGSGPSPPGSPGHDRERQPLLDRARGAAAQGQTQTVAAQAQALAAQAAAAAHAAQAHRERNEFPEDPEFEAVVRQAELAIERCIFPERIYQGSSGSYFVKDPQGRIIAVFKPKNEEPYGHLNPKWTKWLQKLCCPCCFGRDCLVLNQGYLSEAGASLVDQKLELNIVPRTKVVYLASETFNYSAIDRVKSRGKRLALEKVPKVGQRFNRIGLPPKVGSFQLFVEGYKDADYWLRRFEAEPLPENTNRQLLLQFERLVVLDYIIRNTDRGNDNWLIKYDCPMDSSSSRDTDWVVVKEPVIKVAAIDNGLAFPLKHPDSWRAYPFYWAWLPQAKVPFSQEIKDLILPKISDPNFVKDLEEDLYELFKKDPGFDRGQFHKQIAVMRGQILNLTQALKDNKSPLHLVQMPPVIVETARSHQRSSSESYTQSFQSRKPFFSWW
Method: Lipid kinase assay and thin layer chromatography. In vitro lipid phosphorylation assays on post-nuclear supernatant of HEK293, Neuro2a or CHO cells expressing either WT or FAD mutant PS1 and PS2, were carried out as previously described (70). Briefly, 100 μg protein from the supernatant were mixed with 2.5 μl ATP (final: 50 μM), 2.5 μl CaCl2 (final: 50 μM), 27.0 μl EGTA-free kinase buffer (25 mM Hepes, 100 mM KC1, 2.5 mM MgCl2) and 0.5 μl gamma ATP (final 100 nCi/μl) and samples incubated at 37° C. for 15 min. Reaction products were extracted and analyzed by thin layer chromatography (TLC) silica plate (solvent: 64—acetone 30—methanol 24—acetic acid 32—water 14 (v/v)) and visualized by autoradiography.
Mammalian expression of a construct encoding either wild-type (IIα) or the kinase-dead mutant (IIα-KD) forms of PI4KIIα (HA-tagged) were transfected into CHO cells. The enzyme was immuno-isolated using anti-HA affinity beads from cell extracts. The purified PI4KIIα proteins were subjected to a lipid kinase activity assay and TLC analysis using PI as a substrate (FIG. 10C). PI4KIIα, but not the kinase-dead mutant, enhanced the incorporation of [γ32P]-ATP into PIP (FIG. 10C,D).

[2] = tested on: PI4KIIα-overexpressing cells; assay: Aβ42 levels in PI4KIIα-overexpressing cells; assay type: cell-based
Method: Since (20S)Rg3 potentiates PI4KIIα activity (conversion from PI to PIP), it was determined whether the increase in PI4KIIα activity exerts similar effects on Aβ42 generation as observed in the (20S)Rg3-treated cells. Overexpression of PI4KIIα leads to increased protein levels of PI4KIIα and increased PI 4-kinase activity as measured by lipid kinase assay. […] Thus, increased levels of the (20S)Rg3 target protein PI4KIIα may amplify the effects of the Aβ42-lowering activity of (20S)Rg3.

APP/PS1 mice = assay: Radial-arm water-maze in APP/PS1 mice; assay type: in vivo, mouse; details: i.p., 10 mg/kg, three weeks, 3 month-old APP/PS1 mice
Method: Therefore experiments were performed to determine whether (20S)Rg3 can improve the memory impairments in an AD mouse model. (20S)Rg3 was administered for three weeks (i.p., 10 mg/kg) to 3 month-old APP/PS1 mice and age-matched littermate controls. Mice were then subjected to behavioral testing in the radial-arm water-maze paradigm (74).

[3] = tested on: PI4KIIα +/− ES-derived neurons; assay: Aβ42 generation and PIP synthesis in PI4KIIα +/− ES cell-derived pyramidal neurons; assay type: cell-based, mouse
Text: Mouse embryonic stem (ES) cell-derived pyramidal neurons that harbor the heterozygote knockout of the PI4KIIα allele (PI4KIIα +/−; purchased from Sanger Institute Gene Trap Resource; http://www.sanger.ac.uk/PostGenomics/genetrap/) were then used to further study the role for PI4KIIα in Aβ42 generation in neurons. Differentiation and morphology of pyramidal neurons from PI4KIIα heterozygote (+/−) ES cells were indistinguishable from those from match wild-type ES cells (representative neuronal staining is shown in FIGS. 14A and B). […] Aβ42 generation was substantially elevated in the neurons derived from PI4KIIα +/−ES cells.

PC12 cells = assay: PIP2 sensor GFP-PHPLCδ1 plasma membrane/cytosol localization; assay type: cell-based; details: for GFP-PHPLCδ1 probe localization: oAβ42, 2 μM ionomycin, Aβ42Rev
Method: Confocal microscopy. […] Cells have been analyzed after being treated for different time lengths: 0, 10 minutes, 30 minutes and 120 minutes. Cells were washed in phosphate buffer and fixed with 4 percent paraformaldehyde. Confocal z-stack images (0.5 μm) of PC12 cells were obtained using Nikon EZ-C1.2.30 confocal microscope, (×100) oil immersion objective. Quantification of GFP intensity was calculated using the ImageJ software: for each cell in a given image, a line intensity profile across the cell was obtained. The relative decrease in plasma membrane localization was calculated as the ratio between the plasma membrane fluorescence intensity and the average cytosolic fluorescence intensity. The average of the ratio was reported in the graph.
PC12 cells were cultured in RPMI media supplemented with 1 mM glutamine, 5% FBS, 10% horse serum and penicillin, streptomycin. The day before transfection, PC12 cells were split 50% and plated on poly-D-lysine coated coverslips. Cells were transfected with Lipofectamine 2000 as per the manufacturer's protocol with GFP-PHPLCδ1. After 16-24 hours, cells were treated as indicated for 30 minutes in conditioned media. Cells were then briefly washed in PBS and fixed for 20 minutes in 4% paraformaldehyde. Cells were then washed in 0.1M glycine and twice in PBS for 5 minutes each. Cells were mounted using Vectashield. Images were collected using a con-focal microscope and the plot profile was analyzed with ImageJ 1.37v. The ratio of the fluorescence profiles of the plasma membrane and the cytosol were calculated and deemed to represent translocation of the PIP2 probe GFP-PH-PLCδ1 (72).

HeLa cells = assay: Lipid raft fractionation and Western blot of PS1 C-terminal fragments; assay type: cell-based
[4] = tested on: N2a cells stably expressing APP harboring the Swedish mutation; assay: Caspase 3 cleavage Western blot; assay type: cell-based; details: 6 hours; concentrations which decreased Aβ42 generation
Method: Western blot analysis of full length APP and caspase3 was conducted on 30 μg of lysate collected as described above from N2a cells stably expressing APP harboring the Swedish mutation. Cells were treated for 6 hours with KU-55933 at concentrations indicated. APP was detected using the LN27 antibody from Zymed and caspase 3 full length and cleavage product were probed using the caspase 3 antibody from Cell Signaling Technology.

[5] = previous studies (refs 113, 114); cited from earlier work
[6] = tested on: N2a cells stably expressing human APP with the Swedish mutation; assay: Aβ42/Aβ40 production in N2a cells stably expressing human APP with the Swedish mutation; assay type: cell-based; details: 6 hours treatment, read-out: EC50, inhibition of production of Aβ42 as well as Aβ40
Method: N2a cells stably expressing human APP with the Swedish mutation were grown in DMEM-supplemented with 50% Opti-MEM, 10% FBS, penicillin, streptomycin, and G418. Cells were grown to 80-90% confluence and treated for 6 hours with the drugs as indicated in 900 μl media. The conditioned media was harvested and centrifuged for 15 minutes at 14,000 rpm in a table top Eppendorf centrifuge 5417R. The adherent cells were washed two times with ice cold PBS and lysed in 100 μl super IP buffer (10 mM Tris Cl, pH, 7.4, 150 mM NaCl, 2 mM EDTA, 1% Triton X-100, 0.25% NP-40, protease inhibitors). Cell lysates were scraped and incubated for 15 minutes on ice before centrifugation at 14,000 rpm in a table-top Eppendorf centrifuge 5417R. Cleared conditioned media and lysates were stored at −80° C. until use. Aβ 42 and Aβ40 were quantified with the commercially available kit from Biosource as indicated in the protocol. Protein concentration of the cell lysate was determined using the BCA assay from Pierce.
KU-55933 is a small molecule inhibitor of ATM kinase as well as PI3K family members (FIG. 22). […] Aβ 42 and Aβ40 were quantified with the commercially available kit from Biosource as indicated in the protocol. Protein concentration of the cell lysate was determined using the BCA assay from Pierce.

T1 sequence (O60331 whole entry): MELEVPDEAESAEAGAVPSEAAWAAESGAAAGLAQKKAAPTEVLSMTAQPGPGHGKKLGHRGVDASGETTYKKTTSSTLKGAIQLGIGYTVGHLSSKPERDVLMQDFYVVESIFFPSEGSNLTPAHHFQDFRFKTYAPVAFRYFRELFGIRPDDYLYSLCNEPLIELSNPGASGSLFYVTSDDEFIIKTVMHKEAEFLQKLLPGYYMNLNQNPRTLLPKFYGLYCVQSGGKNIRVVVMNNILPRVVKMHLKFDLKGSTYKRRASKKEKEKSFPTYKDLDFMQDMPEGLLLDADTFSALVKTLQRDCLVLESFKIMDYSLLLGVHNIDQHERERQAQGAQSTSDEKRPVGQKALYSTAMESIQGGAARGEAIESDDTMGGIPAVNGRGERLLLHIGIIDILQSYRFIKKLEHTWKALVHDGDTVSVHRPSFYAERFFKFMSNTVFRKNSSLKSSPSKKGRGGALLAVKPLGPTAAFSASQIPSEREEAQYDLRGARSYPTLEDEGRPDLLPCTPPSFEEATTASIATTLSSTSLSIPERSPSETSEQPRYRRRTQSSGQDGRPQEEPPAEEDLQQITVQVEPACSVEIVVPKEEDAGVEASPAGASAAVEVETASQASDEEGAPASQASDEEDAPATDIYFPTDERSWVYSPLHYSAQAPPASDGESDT

Which results are given for CC(C)=CCC[C@](C)(O)[C@H]1CC[C@]2(C)[C@@H]1[C@H](O)C[C@@H]1[C@@]3(C)CC[C@H](O[C@@H]4O[C@H](CO)[C@@H](O)[C@H](O)[C@H]4O[C@@H]4O[C@H](CO)[C@@H](O)[C@H](O)[C@H]4O)C(C)(C)[C@@H]3CC[C@]12C [(20S)Rg3]?
activity of PIPK1γ (PIPK1γ): did not confer any detectable effects; LTP on co-incubation with Aβ oligomers ([1]; 10 μM): resulted in normal LTP; effect on oligomerization process of Aβ42 (Aβ42): no effects on the oligomerization process of Aβ42; steady-state levels of PIP and PIP2 (mouse cortical neurons; 100 μM): increased steady-state levels of both PIP and PIP2; Aβ42 oligomer-induced PIP2 reduction, pre-incubation (mouse cortical neurons; cells pre-incubated with compound): blocked efficiently; oAβ42-induced increase in PA levels (mouse cortical neurons; cultured neurons): inhibited the increase in PA levels; Aβ42 oligomer-induced reduction in PIP2 levels (mouse cortical neurons; treatment / co-treatment of cultured neurons): inhibited the reduction in PIP2 levels; PI4KIIα activity (PI4KIIα; 50 μM with purified enzyme): enhanced PI4KIIα activity in a dose-dependent manner; PIP and PIP2 formation with both PI4KIIα and PIPK1γ (PI4KIIα; both enzymes incubated with compound): led to an increase of both PIP and PIP2; Aβ42 reduction [2]: conferred additive effects on Aβ42 reduction; spatial working memory deficits (APP/PS1 mice): dramatically improved spatial working memory deficits; ability to reduce Aβ42 ([3]; PI4KIIα +/− ES-derived neurons): no longer able to reduce Aβ42; compound-induced PIP synthesis ([3]; PI4KIIα +/− clonal lines AC37 and AD14): substantially reduced; Aβ oligomer-induced loss of plasma membrane fluorescence (PC12 cells; co-incubation with Aβ oligomers): prevented the loss of the plasma membrane fluorescence; lipid raft-associated PS1-CTF levels (HeLa cells; HeLa cells): significantly reduced; total PS-CTF levels (HeLa cells; HeLa cells): unchanged

For CNc1ccc2oc(C[C@H]3O[C@@]4(CC[C@H]3C)O[C@H]([C@H](C)C(=O)c3ccc[nH]3)[C@H](C)C[C@H]4C)nc2c1C(=O)O [A23187], which “PIP2 levels after Ca2+ ionophore” value (mouse cortical neurons) is on record?
The value was “caused PIP2 levels to decrease”.

With CC(=O)OCOC(=O)CN(CC(=O)OCOC(C)=O)c1ccccc1OCCOc1ccccc1N(CC(=O)OCOC(C)=O)CC(=O)OCOC(C)=O [BAPTA-AM] as the compound, how does the “effect of Ca2+ chelation on oAβ42-induced PIP2 decrease” value (mouse cortical neurons) read?
The value was “blocked the action of oAβ42”.

What about the “increase in the levels of PtdIns(4,5)P2” value (mouse cortical neurons; vehicle-treated and oAβ42-treated cortical neurons) of the same compound?
The value was 2 fold.

Which “effect of Ca2+ chelation on oAβ42-induced PIP2 decrease” value (mouse cortical neurons) does the source give for O=C(O)CN(CCOCCOCCN(CC(=O)O)CC(=O)O)CC(=O)O [EGTA] here?
The value was “prevented oAβ42 from decreasing PIP2 levels”.

With O=c1cc(-c2cccc3c2Sc2ccccc2S3)oc(N2CCOCC2)c1 [KU-55933] as the compound, how does the “caspase 3 cleavage” value [4] read?
The value was “did not induce caspase 3 cleavage”.

What about the cytotoxicity [5] of the same compound?
The cytotoxicity was “found not to be cytotoxic”.

What about the “depletion of PIP2 caused by Aβ42 oligomers” value (PC12 cells; 30 minutes, concentration comparable to EC50 for Aβ42) of the same compound?
Its value is “rescued the depletion of PIP2”.

What about the EC50 [6] of the same compound?
Its EC50 is 3.5 µM.

Which “PIP2 levels on oAβ42 treatment in presence of PLC inhibitor” value (PC12 cells; oAβ42 60 min, inhibitor 0.5 μM) does the source give for COc1ccc2c(c1)CC[C@@H]1[C@@H]2CC[C@]2(C)[C@@H](NCCCCCCN3C(=O)C=CC3=O)CC[C@@H]12 [U73122] here?
The value was “PIP2 levels remained unaffected by oAβ42”.

Which “PIP2 levels after Ca2+ ionophore” value (mouse cortical neurons) does the source give for C[C@H](CCC(=O)O)C[C@H](C)C[C@H](C)C(=O)/C=C(\O)[C@H](C)C[C@H](C)C/C=C/[C@@H](C)[C@@H](O)[C@@H](C)[C@@H](O)C[C@@H]1CC[C@@](C)([C@H]2CC[C@@](C)([C@@H](C)O)O2)O1 [ionomycin] here?
The value was “caused PIP2 levels to decrease”.

And the GFP-PHPLCδ1 probe localization (PC12 cells)?
The GFP-PHPLCδ1 probe localization was “mimicked”.

With CSc1ccc(/C=C2/C(C)=C(CC(=O)O)c3cc(F)ccc32)cc1 [sulindac sulfide] as the compound, how does the “association of PS1 fragments with lipid rafts” value (HeLa cells) read?
Its value is “did not confer any effects”.

What does the source list for “oAβ42: crude oligomer preparation made from synthetic Aβ42 peptides”?
effect on LTP ([1]; control (Synj1+/+) slices): partially impaired LTP; ATP levels (mouse cortical neurons; 200 nM): normal; effect on PA levels (mouse cortical neurons; 200 nM, 2-week-old cultured mouse cortical neurons): up-regulated; number of apoptotic nuclei (mouse cortical neurons; 3-day treatment, versus vehicle): comparable or slightly less; amount of pyknosis (mouse cortical neurons; 3-day treatment, versus vehicle-treated neurons): undistinguishable from that occurring in vehicle-treated neurons; levels of PtdA (mouse cortical neurons; crude oligomer preparation of synthetic Aβ42, after 120 min): approximately 130 % of control; GFP-PHPLCδ1 probe localization (PC12 cells): significant disappearance of the probe from the plasma membrane
